# Tests used:
# [1] = test system: HDACs; experiment: In vitro inhibition of HDACs (HDAC Inhibitor Drug Screening Kit, Biovision K340-100); assay type: biochemical
# Procedure: The in vitro inhibitory activities of the compounds towards HDACs were tested according to the instructions in the HDAC Inhibitor Drug Screening Kit (Biovision/Catalog #K340-100).
# (1) The compounds to be tested were each individually prepared as 2 mM, 200 μM and 40 μM solutions and their inhibitory activities at these concentrations were tested.
# [2] = target: HDAC1 (Homo sapiens (Human), UniProt Q13547); experiment: In vitro inhibition of subtype HDAC1 (HDAC1 Inhibitor Drug Screening Kit, Biovision); assay type: biochemical; settings: for inhibition at 1 µM / inhibition at 10 µM: read-out: % Inhibition towards HDAC1
# Procedure: The in vitro inhibitory activities of the compounds towards the subtype HDAC1 were tested according to the instructions in the HDAC1 Inhibitor Drug Screening Kit (Biovision).
# (1) The compounds to be tested were each individually prepared as 10 μM and 1 μM solutions and their inhibitory activities at these concentrations were tested.
# Each dilution sample was placed in two wells and the enzyme inhibition IC50 of the compound was tested.
# [3] = test system: Hut78 T lymphocytic leukemia cells; experiment: In vitro anti-proliferative effect, CCK-8 method, Hut78; assay type: cell-based; settings: Homo sapiens, HuT78, read-out: Hut-78 (inhibition %)
# Outline: (§1)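 K562 and Hut78 cells exposed to compounds at 100 μM and 10 μM. Percent inhibition of proliferation determined by CCK-8 read-out.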
# [4] = test system: PANC-1 human pancreatic cancer cells; experiment: In vitro anti-proliferative effect, CCK-8 method, PANC-1; assay type: cell-based; settings: Homo sapiens, PANC-1
# Outline: (§2)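 Cells treated with compounds at 100 μM and 10 μM. Percent inhibition of proliferation measured by CCK-8.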
# [5] = test system: Jurkat E6-1 human T-cell lymphoma; experiment: In vitro anti-proliferative effect, CCK-8 method, Jurkat E6-1; assay type: cell-based; settings: Homo sapiens, Jurkat E6.1
# Outline: as §2
# [6] = test system: K562 human chronic myelogenous leukemia cells; experiment: In vitro anti-proliferative effect, CCK-8 method, K562; assay type: cell-based; settings: Homo sapiens, K562
# Outline: as §1
# [7] = test system: A549 human lung cancer cells; experiment: In vitro anti-proliferative effect, CCK-8 method, A549; assay type: cell-based; settings: Homo sapiens, A549
# Outline: as §2
# [8] = test system: MDA-MB-435s human breast cancer cells; experiment: In vitro anti-proliferative effect, CCK-8 method, MDA-MB-435s; assay type: cell-based; settings: Homo sapiens, MDA-MB-435S
# Outline: as §2
# [9] = test system: Hep3B2.1-7 human liver cancer cells; experiment: In vitro anti-proliferative effect, CCK-8 method, Hep3B; assay type: cell-based; settings: Homo sapiens, Hep3B cell strain, CCK-8 method; for inhibition at 10 µM: compound at 10 μM; for inhibition at 100 µM: compound at 100 μM
# Outline: as §2
# [10] = test system: PC-3 human prostate cancer; experiment: In vitro anti-proliferative effect, CCK-8 method, PC-3; assay type: cell-based; settings: Homo sapiens, PC-3 cell strain, CCK-8 method; for inhibition at 10 µM: compound at 10 μM; for inhibition at 100 µM: compound at 100 μM
# Outline: as §2
# [11] = test system: Colo320 human colorectal cancer cell lines; experiment: In vitro anti-proliferative effect, CCK-8 method, Colo320; assay type: cell-based; settings: Homo sapiens, COLO 320, Colo320 cell strain, CCK-8 method; for inhibition at 10 µM: compound at 10 μM; for inhibition at 100 µM: compound at 100 μM
# Outline: as §2
# [12] = Maximum tolerance dose through intragastrical administration; assay type: in vivo; settings: mice, administrated intragastrically
# Procedure: Forty ICR mice, half female and half male, weighing […] were divided into four groups, 10 mice in each group. After the mice were fasted for 6 h, the compound to be tested was administrated intragastrically to each group at a volume of 0.3 ml/10 g by using a sterile plastic syringe. General physical signs and the deaths of the animals were record at 1, 2 and 4 h after the administration. The animals were then observed continuously for 14 days and their weights, physical signs and deaths were observed and recorded every day. Dead animals were dissected to see if there was any visible pathological change in the animal's viscera and pathological examination was performed on suspicious tissues and organs. A part of the experimental results is as follows.
# Sequence of HDAC1 (Q13547 whole entry): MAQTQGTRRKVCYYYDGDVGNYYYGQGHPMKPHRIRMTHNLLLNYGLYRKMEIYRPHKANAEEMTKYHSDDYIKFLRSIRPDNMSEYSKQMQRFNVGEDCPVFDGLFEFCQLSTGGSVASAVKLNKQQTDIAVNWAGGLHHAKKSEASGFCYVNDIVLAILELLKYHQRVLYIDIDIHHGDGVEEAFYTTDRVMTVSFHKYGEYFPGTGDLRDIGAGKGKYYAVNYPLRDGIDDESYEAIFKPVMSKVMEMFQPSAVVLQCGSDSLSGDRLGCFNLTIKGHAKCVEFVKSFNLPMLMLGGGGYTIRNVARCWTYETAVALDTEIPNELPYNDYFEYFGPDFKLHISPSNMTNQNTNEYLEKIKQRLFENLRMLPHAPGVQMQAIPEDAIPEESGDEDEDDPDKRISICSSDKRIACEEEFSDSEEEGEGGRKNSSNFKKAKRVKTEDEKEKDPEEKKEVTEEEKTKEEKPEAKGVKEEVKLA
SMILES,Inhibition percentage (%) towards HDACs ([1]; 40 μM),Inhibition percentage (%) towards HDACs ([1]; 200 μM),Inhibition percentage (%) towards HDACs ([1]; 2 mM),inhibition at 1 µM [2],inhibition at 10 µM [2],inhibition at 10 µM [3],inhibition at 100 µM [3],inhibition at 10 µM [4],inhibition at 100 µM [4],inhibition at 10 µM [5],inhibition at 100 µM [5],inhibition at 10 µM [6],inhibition at 100 µM [6],inhibition at 10 µM [7],inhibition at 100 µM [7],inhibition at 10 µM [8],inhibition at 100 µM [8],inhibition at 10 µM [9],inhibition at 100 µM [9],inhibition at 10 µM [10],other results
"COC(=O)Cc1ccc2ncnc(Nc3ccc(C(=O)Nc4ccccc4N)cc3)c2c1 [Compound V-22, N-(2-aminophenyl)-4-(6-methoxycarbonylmethylquinazoline-4-amino)benzamide]",19.9%,47.5%,84.2%,23.1%,63%,42.3%,91.8%,12.3%,39.4%,83.1%,88.2%,60.9%,83.4%,21.8%,69.9%,18%,81.4%,38.3%,69.2%,44.6%,inhibition at 100 µM [10]: 69%; inhibition at 10 µM [11]: 5.4%; inhibition at 100 µM [11]: 40.8%; maximum tolerance dose [12]: over 2000 mg/kg
"COc1cc2ncnc(Nc3ccc(C(=O)Nc4cc(-c5ccccc5)ccc4N)cc3)c2cc1OC [Compound V-24, N-[2-amino-5-(phenyl)phenyl]-4-(6,7-dimethoxyquinazoline-4-amino)benzamide]",24.2%,55.2%,76.1%,51%,73.3%,15.5%,72.9%,17.5%,22.1%,30.7%,91.4%,-1.7%,75.3%,7.3%,20.8%,-10.8%,24.5%,14.3%,69.5%,13.1%,inhibitory activity against HDAC1 compared with MS-275 ([2]; both concentrations 10 μM and 1 μM): superior to that of MS-275; inhibition at 100 µM [10]: 63.7%; inhibition at 10 µM [11]: -1.7%; inhibition at 100 µM [11]: 16.5%; maximum tolerance dose [12]: over 2000 mg/kg

# From patent US9034886B2, “4-aminoquinazoline derivatives and uses thereof” (Shanghai Institute of Pharmaceutical Industry, priority 2011, dated 2015)
